Results from US8329706B2, “Oxazolidinone derivatives” (Actelion Pharmaceuticals Ltd., priority 2009, dated 2012).
pIC50: −log10 of the molar value.

Assays:
human orexin-2 receptor = molecular target: T1, human orexin-2 receptor (Homo sapiens, UniProt O43614); experiment: FLIPR intracellular calcium assay, orexin receptor antagonistic activity (OX2); format: cell-based; conditions: CHO cells expressing human orexin-2 receptor; agonist 3 nM orexin-A; normalized to on-plate reference; * geomean n = 5, *2 geomean n = 2
T1 construct: expressed in transfected cells; host or cells: CHO cells (G418 selection)
T1 sequence (O43614 1-444): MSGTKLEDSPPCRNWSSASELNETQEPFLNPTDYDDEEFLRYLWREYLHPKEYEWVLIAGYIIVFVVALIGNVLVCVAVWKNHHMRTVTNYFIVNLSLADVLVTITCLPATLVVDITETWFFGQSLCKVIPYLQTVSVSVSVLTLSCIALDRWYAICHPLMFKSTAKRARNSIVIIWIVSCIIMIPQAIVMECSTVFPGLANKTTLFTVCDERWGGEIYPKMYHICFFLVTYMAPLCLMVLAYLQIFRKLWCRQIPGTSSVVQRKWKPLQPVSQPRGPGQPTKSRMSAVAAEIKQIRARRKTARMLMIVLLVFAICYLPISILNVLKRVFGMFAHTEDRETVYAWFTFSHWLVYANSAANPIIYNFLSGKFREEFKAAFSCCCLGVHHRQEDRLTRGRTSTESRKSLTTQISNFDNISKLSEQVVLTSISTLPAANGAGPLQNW
Protocol: (§1) The orexin receptor antagonistic activity of the compounds of formula (I) is determined in accordance with the following experimental method.
(§2) Chinese hamster ovary (CHO) cells expressing the human orexin-1 receptor and the human orexin-2 receptor, respectively, are grown in culture medium (Ham F-12 with L-Glutamine) containing 300 μg/ml G418, 100 U/ml penicillin, 100 μg/ml streptomycin and 10% heat inactivated fetal calf serum (FCS). The cells are seeded at 20′000 cells/well into 384-well black clear bottom sterile plates (Greiner). The seeded plates are incubated overnight at 37° C. in 5% CO2.
(§3) Human orexin-A as an agonist is prepared as 1 mM stock solution in MeOH:water (1:1), diluted in HBSS containing 0.1% bovine serum albumin (BSA), NaHCO3: 0.375 g/l and 20 mM HEPES for use in the assay at a final concentration of 3 nM.
(§4) Antagonists are prepared as 10 mM stock solution in DMSO, then diluted in 384-well plates using DMSO followed by a transfer of the dilutions into in HBSS containing 0.1% bovine serum albumin (BSA), NaHCO3: 0.375 g/l and 20 mM HEPES. On the day of the assay, 50 μl of staining buffer (HBSS containing 1% FCS, 20 mM HEPES, NaHCO3: 0.375 g/l, 5 mM probenecid (Sigma) and 3 μM of the fluorescent calcium indicator fluo-4 AM (1 mM stock solution in DMSO, containing 10% pluronic) is added to each well. The 384-well cell-plates are incubated for 50 min at 37° C. in 5% CO2 followed by equilibration at rt for 30-120 min before measurement.
(§5) Within the Fluorescent Imaging Plate Reader (FLIPR Tetra, Molecular Devices), antagonists are added to the plate in a volume of 10 μl/well, incubated for 10 min and finally 10 μl/well of agonist is added. Fluorescence is measured for each well at 1 second intervals, and the height of each fluorescence peak is compared to the height of the fluorescence peak induced by 3 nM orexin-A with vehicle in place of antagonist. For each antagonist, the IC50 value (the concentration of compound needed to inhibit 50% of the agonistic response) is determined and normalized using the obtained IC50 value of a on-plate reference compound. Optimized conditions were achieved by adjustment of pipetting speed and cell splitting regime. The calculated IC50 values of the compounds may fluctuate depending on the daily cellular assay performance. Fluctuations of this kind are known to those skilled in the art.

human orexin-1 receptor = molecular target: T2, human orexin-1 receptor (Homo sapiens, UniProt O43613); experiment: FLIPR intracellular calcium assay, orexin receptor antagonistic activity (OX1); format: cell-based; conditions: CHO cells expressing human orexin-1 receptor; agonist 3 nM orexin-A; normalized to on-plate reference; * geomean n = 5, *2 geomean n = 2
T2 construct: expressed in transfected cells; host or cells: CHO cells (G418 selection)
T2 sequence (O43613 1-425): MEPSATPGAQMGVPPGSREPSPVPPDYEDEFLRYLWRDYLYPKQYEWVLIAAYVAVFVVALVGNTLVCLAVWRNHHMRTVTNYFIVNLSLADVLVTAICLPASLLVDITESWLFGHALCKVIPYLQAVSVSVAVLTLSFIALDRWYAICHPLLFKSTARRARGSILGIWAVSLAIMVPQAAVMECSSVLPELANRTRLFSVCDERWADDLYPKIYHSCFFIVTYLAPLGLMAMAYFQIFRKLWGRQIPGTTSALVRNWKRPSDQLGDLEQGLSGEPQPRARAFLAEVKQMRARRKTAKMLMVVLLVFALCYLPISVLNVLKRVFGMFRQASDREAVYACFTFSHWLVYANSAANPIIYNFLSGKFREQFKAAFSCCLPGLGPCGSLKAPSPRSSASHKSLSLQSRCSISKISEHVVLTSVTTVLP
Protocol: as §1, §2, §3, §4, §5

Compound	pIC50 (human orexin-2 receptor)	pIC50 (human orexin-1 receptor)
COc1cccc(OC)c1C1O[C@@H](C)C(=O)N1Cc1ccc(Oc2ccccc2)cc1 (stereo partly drawn) [Example 59, 2-(2,6-Dimethoxy-phenyl)-(S)-5-methyl-3-(4-phenoxy-benzyl)-oxazolidin-4-one]	6.82	5.67
COc1cccc(OC)c1C1OCC(=O)N1Cc1ccc(OC(C)C)cc1 (stereo not shown) [Example 60, 2-(2,6-Dimethoxy-phenyl)-3-(4-isopropoxy-benzyl)-oxazolidin-4-one]	6.80	5.49
COc1cccc(OC)c1C1OC(C)(C)C(=O)N1Cc1ccc(OC(F)(F)F)cc1 (stereo not shown) [Example 61, 2-(2,6-Dimethoxy-phenyl)-5,5-dimethyl-3-(4-trifluoromethoxy-benzyl)-oxazolidin-4-one]	6.80	7.54
COc1cccc(OC)c1C1O[C@H](C)C(=O)N1Cc1nc2ccccc2s1 (stereo partly drawn) [Example 62, 3-Benzothiazol-2-ylmethyl-2-(2,6-dimethoxy-phenyl)-(R)-5-methyl-oxazolidin-4-one]	6.71	5.54
COc1cccc(OC)c1C1O[C@H](C)C(=O)N1Cc1ccc(OC(F)(F)F)cc1 (stereo partly drawn) [Example 63, 2-(2,6-Dimethoxy-phenyl)-(R)-5-methyl-3-(4-trifluoromethoxy-benzyl)-oxazolidin-4-one]	6.67	6.59
COc1cccc(OC)c1C1OC(C)(C)C(=O)N1Cc1nc2ccccc2s1 (stereo not shown) [Example 64, 3-Benzothiazol-2-ylmethyl-2-(2,6-dimethoxy-phenyl)-5,5-dimethyl-oxazolidin-4-one]	6.65	6.39
COc1cccc(OC)c1C1OCC(=O)N1Cc1ccc(OCC2CC2)cc1 (stereo not shown) [Example 65, 3-(4-Cyclopropylmethoxy-benzyl)-2-(2,6-dimethoxy-phenyl)-oxazolidin-4-one]	6.61	5.20
COc1cccc(OC)c1C1O[C@@H](C)C(=O)N1Cc1ccc2ccccc2c1 (stereo partly drawn) [Example 66, 2-(2,6-Dimethoxy-phenyl)-(S)-5-methyl-3-naphthalen-2-ylmethyl-oxazolidin-4-one]	6.58	6.38
COc1cccc(OC)c1C1OC(C)(C)C(=O)N1Cc1ccc(OC(F)(F)F)c(F)c1 (stereo not shown) [Example 67, 2-(2,6-Dimethoxy-phenyl)-3-(3-fluoro-4-trifluoromethoxy-benzyl)-5,5-dimethyl-oxazolidin-4-one]	6.49	7.60
COc1cccc(OC)c1C1OC(C)(C)C(=O)N1Cc1nc2ccccc2o1 (stereo not shown) [Example 68, 3-Benzooxazol-2-ylmethyl-2-(2,6-dimethoxy-phenyl)-5,5-dimethyl-oxazolidin-4-one]	6.29	5.53
COc1cccc(OC)c1C1OC(C)(C)C(=O)N1Cc1ccc(OC(F)F)cc1 (stereo not shown) [Example 69, 3-(4-Difluoromethoxy-benzyl)-2-(2,6-dimethoxy-phenyl)-5,5-dimethyl-oxazolidin-4-one]	6.03	6.73
COc1cccc(OC)c1C1OC(C)(C)C(=O)N1Cc1nc2ccccc2n1C (stereo not shown) [Example 70, 2-(2,6-Dimethoxy-phenyl)-5,5-dimethyl-3-(1-methyl-1H-benzoimidazol-2-ylmethyl)-oxazolidin-4-one]	5.89	7.19
COc1cccc(OC)c1C1OC(C)(C)C(=O)N1Cc1ccc2c(c1)OCO2 (stereo not shown) [Example 71, 3-Benzo[1,3]dioxol-5-ylmethyl-2-(2,6-dimethoxy-phenyl)-5,5-dimethyl-oxazolidin-4-one]	5.78	6.82
COc1ccc(CN2C(=O)C(C)(C)OC2c2c(OC)cccc2OC)cc1 (stereo not shown) [Example 72, 2-(2,6-Dimethoxy-phenyl)-3-(4-methoxy-benzyl)-5,5-dimethyl-oxazolidin-4-one]	5.64	6.73
CCCOc1ccc(CN2C(=O)[C@@H](C)OC2c2c(OC)cccc2OC)cc1 (stereo partly drawn) [Example 73, 2-(2,6-Dimethoxy-phenyl)-(R)-5-methyl-3-(4-propoxy-benzyl)-oxazolidin-4-one]	7.07	6.24
COc1cccc(OC)c1C1O[C@H](C)C(=O)N1Cc1ccc(OC(C)C)cc1 (stereo partly drawn) [Example 74, 2-(2,6-Dimethoxy-phenyl)-3-(4-isopropoxy-benzyl)-(R)-5-methyl-oxazolidin-4-one]	7.02	5.92
COc1cccc(OC)c1C1O[C@H](C)C(=O)N1Cc1ccc(OCC2CC2)cc1 (stereo partly drawn) [Example 75, 3-(4-Cyclopropylmethoxy-benzyl)-2-(2,6-dimethoxy-phenyl)-(R)-5-methyl-oxazolidin-4-one]	6.91	5.75
COc1cccc(OC)c1C1OC(C)(C)C(=O)N1Cc1ccc(OC(C)C)cc1 (stereo not shown) [Example 76, 2-(2,6-Dimethoxy-phenyl)-3-(4-isopropoxy-benzyl)-5,5-dimethyl-oxazolidin-4-one]	6.71	6.94
CCCOc1ccc(CN2C(=O)C(C)(C)OC2c2c(OC)cccc2OC)cc1 (stereo not shown) [Example 77, 2-(2,6-Dimethoxy-phenyl)-5,5-dimethyl-3-(4-propoxy-benzyl)-oxazolidin-4-one]	6.32	6.94
COc1cccc(OC)c1C1OC(C)(C)C(=O)N1Cc1ccc(OCC2CC2)cc1 (stereo not shown) [Example 78, 3-(4-Cyclopropylmethoxy-benzyl)-2-(2,6-dimethoxy-phenyl)-5,5-dimethyl-oxazolidin-4-one]	6.21	6.33
CCOc1ccc(CN2C(=O)[C@@H](C)O[C@@H]2c2c(OC)cccc2OC)cc1 [Example 79, 2-(2,6-Dimethoxy-phenyl)-3-(4-ethoxy-benzyl)-(r)-5-methyl-oxazolidin-4-one]	6.06	6.08
CCOc1ccc(CN2C(=O)C(C)(C)OC2c2c(OC)cccc2OC)cc1 (stereo not shown) [Example 80, 2-(2,6-Dimethoxy-phenyl)-3-(4-ethoxy-benzyl)-5,5-dimethyl-oxazolidin-4-one]	5.71	6.86
Cc1cccc(C)c1C1OC(C)(C)C(=O)N1Cc1ccc(OC(F)(F)F)c(Cl)c1 (stereo not shown) [Example 81, 3-(3-Chloro-4-trifluoromethoxy-benzyl)-2-(2,6-dimethyl-phenyl)-5,5-dimethyl-oxazolidin-4-one]	7.06	6.04
CC1(C)OC(c2c(F)cccc2F)N(Cc2ccc(OC(F)(F)F)c(Cl)c2)C1=O (stereo not shown) [Example 82, 3-(3-Chloro-4-trifluoromethoxy-benzyl)-2-(2,6-difluoro-phenyl)-5,5-dimethyl-oxazolidin-4-one]	6.96	6.47
COc1cccc(C)c1C1OC(C)(C)C(=O)N1Cc1ccc(OC(F)(F)F)c(Cl)c1 (stereo not shown) [Example 83, 3-(3-Chloro-4-trifluoromethoxy-benzyl)-2-(2-methoxy-6-methyl-phenyl)-5,5-dimethyl-oxazolidin-4-one]	7.16	6.88
COc1cccc(F)c1C1OC(C)(C)C(=O)N1Cc1ccc(Oc2ccccc2)cc1 (stereo not shown) [Example 84, 2-(2-Fluoro-6-methoxy-phenyl)-5,5-dimethyl-3-(4-phenoxy-benzyl)-oxazolidin-4-one]	7.34	6.38
